Here are results for two compounds from patent US8063240B2, “Prostaglandin E1 and E2 analogs for the treatment of various medical conditions” (Cayman Chemical Company, Incorporated, priority 2007, dated 2011).

Where only a bound is given, the exact number is not on record here.

Series [1] in a line: Stability of purified HPLC peak left overnight in mobile phase. It is filed as physicochemical. Conditions: mobile phase 70:30:0.1 MeOH/H2O/AcOH. The method, then:
Mobile phase: 70:30:0.1 MeOH/H2O/AcOH—premixed
Sample concentration: sample was dissolved at 100 mg/mL in 70:30 MeOH/H2O Peaks were collected manually at 0° C. and purified batches were kept at −20° C. at the end of each day. Peak 2 (title compound, 14.6 minute retention time) degrades about 6% when left at 4° C. overnight in mobile phase and degrades minimally (<1%) when left at −20° C. overnight. […] LCMS data of both products confirm masses consistent with the designations presented herein.

The target of a further series is T1, human EP1 receptor (Homo sapiens, UniProt P34995).
T1 construct: host or cells: HEK-293
T1 sequence (P34995 1-402): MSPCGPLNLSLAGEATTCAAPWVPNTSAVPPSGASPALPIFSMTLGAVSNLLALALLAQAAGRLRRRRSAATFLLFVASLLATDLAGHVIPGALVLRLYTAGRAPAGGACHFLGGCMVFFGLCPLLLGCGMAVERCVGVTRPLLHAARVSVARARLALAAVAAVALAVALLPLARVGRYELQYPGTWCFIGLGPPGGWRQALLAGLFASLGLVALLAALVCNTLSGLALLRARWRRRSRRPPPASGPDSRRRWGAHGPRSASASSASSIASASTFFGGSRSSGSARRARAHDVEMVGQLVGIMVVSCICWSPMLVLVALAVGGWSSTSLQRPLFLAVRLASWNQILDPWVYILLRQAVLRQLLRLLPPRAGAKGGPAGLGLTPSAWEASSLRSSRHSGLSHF
As to the kind of experiment: Functional Assay #1AGii (Cerep EP1 Agonist Assay), cytosolic Ca2+ mobilization, fluorimetric detection. Conditions: mean of N=2, percent of control response to 100 nM PGE2, transfected HEK-293 cells. It is filed as cell-based. The text has this: Alternative EP1 Receptor Agonism Assay
(Cerep, Catalog reference 722-55a; UNGRIN, M. D., SINGH L. M. R., STOCCO, R., SAS, D. E. and ABRAMOVITZ, M. (1999), An automated aequorin luminescence-based functional calcium assay for G-Protein-Coupled Receptors. Analytical Biochem., 272, 34.)
Evaluation of the agonist activity of compounds at the human EP1 receptor in transfected HEK-293 cells, determined by measuring their effect on cytosolic Ca^2+ ion mobilization using a fluorimetric detection method.
The cells are suspended in DMEM buffer (Invitrogen), then distributed in microplates at a density of 3.10^4 cells/well. The fluorescent probe (Fluo4 NR, Invitrogen) mixed with probenicid in HBSS buffer (Invitrogen) complemented with 20 mM Hepes (Invitrogen) (pH 7.4) is then added into each well and equilibrated with the cells for 30 minutes at 37° C. then 30 minutes at 22° C. Thereafter, the assay plates are positioned in a microplate reader (CellLux, PerkinElmer) which is used for the addition of the test compound, reference agonist or HBSS buffer (basal control), and the measurements of changes in fluorescence intensity which varies proportionally to the free cytosolic Ca^2+ ion concentration. For stimulated control measurements, PGE2 at 100 nM is added in separate assay wells.
The results are expressed as a percent of the control response to 100 nM PGE2. The standard reference agonist is PGE2, which is tested in each experiment at several concentrations to generate a concentration-response curve from which its EC50 value is calculated.

A further series has as its target T2, human EP2 receptor (Homo sapiens, UniProt P43116).
T2 construct: host or cells: CHO
The series can be described thus: Functional Assay #2AGii (Cerep EP2 Agonist Assay), cAMP production, HTRF detection. It is filed as cell-based. The note with it: mean of N=2, percent of control response to 10 μM PGE2, transfected CHO cells. The text has this:
Alternative EP2 Receptor Agonism Assay
(Cerep, Catalog reference 758-54a; WILSON, R. J., RHODES, S. A., WOOD, R. L., SHIELD, V. J., NOEL, L. S., GRAY, D. W. and GILES H. (2004), Functional pharmacology of human prostanoid EP2 and EP4 receptors, Eur. J. Pharmacol., 501, 49.)
Evaluation of the agonist activity of compounds at the human EP2 receptor in transfected CHO cells, determined by measuring their effects on cAMP production using the HTRF detection method.
(§1) The cells are suspended in HBSS buffer (Invitrogen) complemented with HEPES 20 mM (pH 7.4) and 500 μM IBMX, then distributed in microplates at a density of 10^4 cells/well and incubated for 30 minutes at 37° C. in the absence (control) or presence of the test compound or the reference agonist. For stimulated control measurements, separate assay wells contain 10 μM PGE2. Following incubation, the cells are lysed and the fluorescence acceptor (D2-labeled cAMP) and fluorescence donor (anti-cAMP antibody labeled with europium cryptate) are added. After 60 minutes at room temperature, the fluorescence transfer is measured at λex=337 nm and λem=620 and 665 nm using a microplate reader (Rubystar, BMG). The cAMP concentration is determined by dividing the signal measured at 665 nm by that measured at 620 nm (ratio). The results are expressed as a percent of the control response to 10 μM PGE2. The standard reference agonist is PGE2, which is tested in each experiment at several concentrations to generate a concentration-response curve from which its EC50 value is calculated.

The target of a further series is T3, human EP4 receptor (Homo sapiens, UniProt P35408).
T3 construct: host or cells: CHO
The series can be described thus: Functional Assay #4AGii (Cerep EP4 Agonist Assay), cAMP production, HTRF detection. It is filed as cell-based. Conditions: mean of N=2, percent of control response to 1 μM PGE2, transfected CHO cells. Here is the method:
Alternative EP4 Receptor Agonism Assay
(Cerep, Catalog Reference 758-49a; Wilson, R. J., et al., Ibid.)
Evaluation of the agonist activity of compounds at the human EP4 receptor in transfected CHO cells, determined by measuring their effects on cAMP production using the HTRF detection method.
as §1, with “2.10^4” for “10^4”, “10” for “30”, “room temperature” for “37° C.”, “1” for “10”

T3 sequence (P35408 whole entry): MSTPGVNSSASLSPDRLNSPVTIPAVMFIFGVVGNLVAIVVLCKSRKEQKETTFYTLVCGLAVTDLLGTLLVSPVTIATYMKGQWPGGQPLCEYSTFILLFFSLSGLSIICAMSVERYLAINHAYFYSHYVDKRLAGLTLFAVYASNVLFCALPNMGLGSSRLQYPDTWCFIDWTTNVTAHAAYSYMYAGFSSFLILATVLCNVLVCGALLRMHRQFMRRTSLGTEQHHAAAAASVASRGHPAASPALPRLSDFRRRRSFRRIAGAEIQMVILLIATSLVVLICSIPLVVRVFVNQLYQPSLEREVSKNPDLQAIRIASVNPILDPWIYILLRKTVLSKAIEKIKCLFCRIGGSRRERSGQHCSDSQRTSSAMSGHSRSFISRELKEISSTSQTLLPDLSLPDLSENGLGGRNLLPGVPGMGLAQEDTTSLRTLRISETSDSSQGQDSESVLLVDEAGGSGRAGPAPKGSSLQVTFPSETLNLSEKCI
T2 sequence (P43116 whole entry): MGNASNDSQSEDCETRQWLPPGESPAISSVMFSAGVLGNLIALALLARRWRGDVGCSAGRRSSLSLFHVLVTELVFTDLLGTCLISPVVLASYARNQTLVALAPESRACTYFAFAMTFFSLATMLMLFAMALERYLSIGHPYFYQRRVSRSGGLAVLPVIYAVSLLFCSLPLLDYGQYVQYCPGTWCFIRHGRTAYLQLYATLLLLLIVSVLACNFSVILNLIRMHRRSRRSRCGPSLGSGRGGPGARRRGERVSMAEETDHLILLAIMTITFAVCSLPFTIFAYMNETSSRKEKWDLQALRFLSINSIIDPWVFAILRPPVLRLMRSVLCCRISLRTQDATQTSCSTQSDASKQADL

Consider `O=C(O)CCC/C=C\C[C@H]1C(=O)C[C@H](F)[C@@H]1/C=C/[C@@H](O)C1Cc2ccccc2C1` (single isomer, unassigned) [Example 17], for which the “degradation when left overnight in mobile phase” value is “about 6%” in series [1] (4° C. overnight) and under 1% in series [1] (−20° C. overnight).
On to `O=C(O)CCC/C=C\C[C@H]1C(=O)C[C@@H](O)[C@@H]1/C=C/[C@@H](O)c1cc2ccccc2s1` [Example 7, (Z)-7-((1R,2R,3R)-2-((R,E)-3-(benzo[b]thiophen-2-yl)-3-hydroxyprop-1-enyl)-3-hydroxy-5-oxocyclopentyl)hept-5-enoic Acid], for which the “% Control Agonist response @ compound concentration” value was 80% at human EP1 receptor (0.1 μM); 88% on human EP1 receptor (1 μM); 144% at human EP1 receptor (10 μM); 0% on human EP2 receptor (0.1 μM); −1% at human EP2 receptor (1 μM); 5% on human EP2 receptor (10 μM). The “% Control Agonist response @ compound concentration” value is −1% on human EP4 receptor (0.1 μM), 4% on human EP4 receptor (1 μM) and 29% on human EP4 receptor (10 μM).
